According to the kinase profiling compilation of Christmann-Franck et al. (2016):

Assays:
Experiment in all cases: radiometric filter-binding kinase assay
[1] = target: EPHB3 (human) (UniProt P54753)
[2] = target: EPHB2 (human) (UniProt P29323)
[3] = target: YES1 (human) (UniProt P07947)
[4] = target: PAK4 (human) (UniProt O96013)
[5] = target: MAPK14 (human) (UniProt Q16539)
[6] = target: BRSK1 (human) (UniProt Q8TDC3)
[7] = target: CSNK1D (human) (UniProt P48730)
[8] = target: PAK7 (human) (UniProt Q9P286)
[9] = target: RIPK2 (human) (UniProt O43353)
[10] = target: PIM1 (human) (UniProt P11309)
Chain of PIM1 (human) (P11309 whole entry, looked up): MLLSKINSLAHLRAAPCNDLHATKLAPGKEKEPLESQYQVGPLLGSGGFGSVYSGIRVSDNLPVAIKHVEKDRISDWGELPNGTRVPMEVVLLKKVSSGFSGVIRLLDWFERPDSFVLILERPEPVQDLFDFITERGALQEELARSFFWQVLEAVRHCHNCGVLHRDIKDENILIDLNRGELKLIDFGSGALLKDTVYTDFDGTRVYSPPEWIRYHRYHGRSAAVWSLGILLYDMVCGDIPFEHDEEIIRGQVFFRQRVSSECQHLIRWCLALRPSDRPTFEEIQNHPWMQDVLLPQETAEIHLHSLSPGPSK

[11] = target: CAMKK2 (human) (UniProt Q96RR4)
[12] = target: DYRK1A (human) (UniProt Q13627)
[13] = target: CSK (human) (UniProt P41240)
[14] = target: BTK (human) (UniProt Q06187)
[15] = target: MAPK9 (human) (UniProt P45984)
[16] = target: CaMK1 (human) (UniProt Q14012)
[17] = target: MINK1 (human) (UniProt Q8N4C8)
Chain of MINK1 (human) (Q8N4C8 whole entry, looked up): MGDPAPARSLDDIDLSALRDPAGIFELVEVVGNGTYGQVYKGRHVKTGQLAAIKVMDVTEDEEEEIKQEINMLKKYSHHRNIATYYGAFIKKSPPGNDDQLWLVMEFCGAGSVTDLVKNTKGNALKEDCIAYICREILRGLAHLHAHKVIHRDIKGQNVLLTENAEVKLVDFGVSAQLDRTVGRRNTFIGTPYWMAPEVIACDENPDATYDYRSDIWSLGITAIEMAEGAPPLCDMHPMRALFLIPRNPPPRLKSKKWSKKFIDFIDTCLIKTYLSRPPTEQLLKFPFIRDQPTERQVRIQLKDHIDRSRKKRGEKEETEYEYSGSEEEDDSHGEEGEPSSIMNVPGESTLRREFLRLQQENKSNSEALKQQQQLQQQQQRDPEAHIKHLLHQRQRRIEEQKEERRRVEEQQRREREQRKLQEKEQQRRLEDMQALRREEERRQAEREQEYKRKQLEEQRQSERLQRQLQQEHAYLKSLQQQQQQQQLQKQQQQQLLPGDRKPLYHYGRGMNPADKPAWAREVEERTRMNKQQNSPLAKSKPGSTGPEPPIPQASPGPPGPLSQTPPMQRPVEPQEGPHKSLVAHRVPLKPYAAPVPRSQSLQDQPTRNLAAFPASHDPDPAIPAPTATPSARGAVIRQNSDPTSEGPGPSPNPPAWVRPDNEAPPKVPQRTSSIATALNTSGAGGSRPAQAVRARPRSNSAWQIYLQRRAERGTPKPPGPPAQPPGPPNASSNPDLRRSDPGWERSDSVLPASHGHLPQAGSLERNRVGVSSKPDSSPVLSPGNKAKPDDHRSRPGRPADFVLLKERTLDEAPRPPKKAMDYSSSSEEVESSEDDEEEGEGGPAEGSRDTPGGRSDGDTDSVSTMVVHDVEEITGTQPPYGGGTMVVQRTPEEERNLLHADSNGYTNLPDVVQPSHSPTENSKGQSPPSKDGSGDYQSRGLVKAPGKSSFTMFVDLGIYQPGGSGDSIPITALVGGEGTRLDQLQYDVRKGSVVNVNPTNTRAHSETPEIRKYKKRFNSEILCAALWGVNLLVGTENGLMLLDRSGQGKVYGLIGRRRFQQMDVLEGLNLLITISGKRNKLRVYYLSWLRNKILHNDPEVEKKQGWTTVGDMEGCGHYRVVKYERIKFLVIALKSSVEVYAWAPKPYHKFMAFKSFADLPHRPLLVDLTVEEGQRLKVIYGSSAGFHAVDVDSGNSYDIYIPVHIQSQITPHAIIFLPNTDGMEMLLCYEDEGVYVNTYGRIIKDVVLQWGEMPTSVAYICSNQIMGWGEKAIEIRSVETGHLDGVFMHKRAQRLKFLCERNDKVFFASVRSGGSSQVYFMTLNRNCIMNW

[18] = target: MAPKAPK2 (human) (UniProt P49137)
Chain of MAPKAPK2 (human) (P49137 whole entry, looked up): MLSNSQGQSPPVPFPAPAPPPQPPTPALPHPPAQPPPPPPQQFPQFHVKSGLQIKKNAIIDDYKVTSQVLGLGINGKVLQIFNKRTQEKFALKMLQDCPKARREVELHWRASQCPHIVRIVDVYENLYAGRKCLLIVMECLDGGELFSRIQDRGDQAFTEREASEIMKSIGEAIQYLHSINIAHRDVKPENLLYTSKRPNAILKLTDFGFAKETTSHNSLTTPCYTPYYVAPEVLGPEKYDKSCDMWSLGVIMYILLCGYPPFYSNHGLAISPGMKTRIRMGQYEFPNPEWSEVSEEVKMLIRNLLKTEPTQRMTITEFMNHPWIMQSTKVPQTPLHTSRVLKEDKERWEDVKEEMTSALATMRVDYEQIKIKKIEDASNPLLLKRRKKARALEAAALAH

[19] = target: MAPK8 (human) (UniProt P45983)
Chain of MAPK8 (human) (P45983 whole entry, looked up): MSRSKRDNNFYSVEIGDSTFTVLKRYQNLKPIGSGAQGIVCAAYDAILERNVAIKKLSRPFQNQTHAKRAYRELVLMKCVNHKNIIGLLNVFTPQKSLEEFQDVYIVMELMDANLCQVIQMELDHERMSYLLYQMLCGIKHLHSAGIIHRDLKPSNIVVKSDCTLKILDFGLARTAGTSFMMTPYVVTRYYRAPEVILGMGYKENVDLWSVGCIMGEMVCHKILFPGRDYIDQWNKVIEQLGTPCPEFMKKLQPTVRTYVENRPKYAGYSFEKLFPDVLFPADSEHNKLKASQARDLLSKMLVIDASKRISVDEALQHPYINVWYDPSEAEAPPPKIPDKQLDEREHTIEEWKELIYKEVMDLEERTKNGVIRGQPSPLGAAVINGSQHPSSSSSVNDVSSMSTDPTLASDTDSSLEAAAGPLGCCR

[20] = target: MAP3K7 TAB1 (human) (UniProt Q15750+O43318)
[21] = target: IGF1R (human) (UniProt P08069)
[22] = target: MAP2K2 (human) (UniProt P36507)
[23] = target: MAPKAPK5 (human) (UniProt Q8IW41)
[24] = target: MKNK2 (human) (UniProt Q9HBH9)
[25] = target: DYRK2 (human) (UniProt Q92630)
[26] = target: AURKB (human) (UniProt Q96GD4)
[27] = target: MELK (human) (UniProt Q14680)
[28] = target: MAPK15 (human) (UniProt Q8TD08)
[29] = target: HIPK2 (human) (UniProt Q9H2X6)
[30] = target: MAPK12 (human) (UniProt P53778)
Chain of MAPK12 (human) (P53778 whole entry, looked up): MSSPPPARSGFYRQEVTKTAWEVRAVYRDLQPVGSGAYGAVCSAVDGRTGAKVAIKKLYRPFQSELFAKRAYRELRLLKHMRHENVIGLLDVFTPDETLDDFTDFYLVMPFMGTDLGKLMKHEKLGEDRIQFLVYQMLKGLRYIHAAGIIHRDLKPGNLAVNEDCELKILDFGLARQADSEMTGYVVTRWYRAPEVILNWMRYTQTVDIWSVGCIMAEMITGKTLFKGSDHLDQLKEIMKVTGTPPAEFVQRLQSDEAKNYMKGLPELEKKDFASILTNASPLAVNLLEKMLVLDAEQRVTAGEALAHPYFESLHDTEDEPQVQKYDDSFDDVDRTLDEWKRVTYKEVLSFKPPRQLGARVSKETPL

[31] = target: EPHA4 (human) (UniProt P54764)
[32] = target: PRKACA (human) (UniProt P17612)
[33] = target: IKBKB (human) (UniProt O14920)
[34] = target: MAP3K11 (human) (UniProt Q16584)
[35] = target: IKBKE (human) (UniProt Q14164)

Chain of EPHB3 (human) (P54753 whole entry, looked up): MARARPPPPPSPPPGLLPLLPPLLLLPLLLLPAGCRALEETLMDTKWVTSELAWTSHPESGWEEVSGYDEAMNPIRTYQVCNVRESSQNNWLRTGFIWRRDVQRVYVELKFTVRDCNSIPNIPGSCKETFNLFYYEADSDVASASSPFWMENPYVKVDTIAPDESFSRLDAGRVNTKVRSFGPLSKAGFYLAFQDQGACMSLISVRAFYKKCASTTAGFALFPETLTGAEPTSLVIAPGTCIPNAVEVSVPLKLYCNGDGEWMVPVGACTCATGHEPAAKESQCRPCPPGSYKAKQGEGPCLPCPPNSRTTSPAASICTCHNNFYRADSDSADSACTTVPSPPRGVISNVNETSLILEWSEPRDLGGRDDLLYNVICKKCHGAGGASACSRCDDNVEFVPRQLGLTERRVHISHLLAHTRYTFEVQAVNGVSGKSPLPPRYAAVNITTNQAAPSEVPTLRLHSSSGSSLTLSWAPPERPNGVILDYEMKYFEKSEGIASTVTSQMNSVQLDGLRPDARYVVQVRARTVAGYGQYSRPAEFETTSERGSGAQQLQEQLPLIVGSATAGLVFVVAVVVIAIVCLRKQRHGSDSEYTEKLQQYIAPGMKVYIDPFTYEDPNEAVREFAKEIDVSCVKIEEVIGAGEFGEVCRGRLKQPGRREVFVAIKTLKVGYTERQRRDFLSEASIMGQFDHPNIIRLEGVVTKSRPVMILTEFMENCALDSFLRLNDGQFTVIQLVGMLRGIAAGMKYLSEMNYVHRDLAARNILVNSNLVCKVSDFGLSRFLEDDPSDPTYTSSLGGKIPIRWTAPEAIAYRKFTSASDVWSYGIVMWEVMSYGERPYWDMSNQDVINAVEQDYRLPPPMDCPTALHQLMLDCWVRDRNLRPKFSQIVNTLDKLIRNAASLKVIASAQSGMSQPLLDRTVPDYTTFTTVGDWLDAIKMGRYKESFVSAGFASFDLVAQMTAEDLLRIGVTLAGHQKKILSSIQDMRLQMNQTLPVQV
Chain of BRSK1 (human) (Q8TDC3 whole entry, looked up): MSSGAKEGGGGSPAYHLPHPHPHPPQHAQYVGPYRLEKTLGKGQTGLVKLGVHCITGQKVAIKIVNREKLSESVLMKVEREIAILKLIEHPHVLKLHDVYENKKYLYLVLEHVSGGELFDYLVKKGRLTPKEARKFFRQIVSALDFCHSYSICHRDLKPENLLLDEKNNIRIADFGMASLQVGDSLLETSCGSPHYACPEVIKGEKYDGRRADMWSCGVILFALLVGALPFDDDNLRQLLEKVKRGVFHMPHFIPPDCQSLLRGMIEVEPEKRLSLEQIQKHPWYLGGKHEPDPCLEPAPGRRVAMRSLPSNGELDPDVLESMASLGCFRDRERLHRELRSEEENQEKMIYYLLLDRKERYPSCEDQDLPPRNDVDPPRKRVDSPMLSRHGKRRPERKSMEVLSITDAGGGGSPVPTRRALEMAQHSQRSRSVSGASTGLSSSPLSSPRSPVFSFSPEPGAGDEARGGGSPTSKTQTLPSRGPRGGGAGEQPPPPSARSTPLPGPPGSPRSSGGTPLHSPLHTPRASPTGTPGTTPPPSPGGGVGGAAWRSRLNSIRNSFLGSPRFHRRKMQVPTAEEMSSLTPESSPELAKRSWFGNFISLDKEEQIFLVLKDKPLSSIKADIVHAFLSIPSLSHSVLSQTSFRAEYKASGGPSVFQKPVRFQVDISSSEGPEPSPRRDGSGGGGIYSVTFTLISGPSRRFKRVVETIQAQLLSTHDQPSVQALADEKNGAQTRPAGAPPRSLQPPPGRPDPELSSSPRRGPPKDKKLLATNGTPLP
Chain of CSNK1D (human) (P48730 whole entry, looked up): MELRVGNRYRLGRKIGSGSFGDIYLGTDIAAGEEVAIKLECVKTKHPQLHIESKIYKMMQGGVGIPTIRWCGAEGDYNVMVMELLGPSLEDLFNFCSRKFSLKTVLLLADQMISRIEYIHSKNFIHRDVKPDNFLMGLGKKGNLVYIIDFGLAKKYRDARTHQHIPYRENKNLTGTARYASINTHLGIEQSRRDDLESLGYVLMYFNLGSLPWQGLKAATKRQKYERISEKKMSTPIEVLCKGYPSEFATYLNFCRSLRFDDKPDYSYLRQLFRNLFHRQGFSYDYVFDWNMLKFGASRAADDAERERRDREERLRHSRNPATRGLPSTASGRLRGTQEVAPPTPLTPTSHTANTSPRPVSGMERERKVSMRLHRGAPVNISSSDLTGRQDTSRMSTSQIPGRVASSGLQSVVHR

Structure (SMILES): COc1ccc(-n2ncc3cnc(Nc4cc(OC)c(OC)c(OCCCN5CCN(C)CC5)c4)nc32)cc1
- residual activity ([1]; compound 0.1 µM): 86%
- residual activity ([1]; compound 1.0 µM): 16%
- residual activity ([2]; compound 0.1 µM): 23%
- residual activity ([2]; compound 1.0 µM): 6%
- residual activity ([3]; compound 0.1 µM): 16%
- residual activity ([3]; compound 1.0 µM): 7%
- residual activity ([4]; compound 0.1 µM): 29%
- residual activity ([4]; compound 1.0 µM): 9%
- residual activity ([5]; compound 0.1 µM): 98%
- residual activity ([5]; compound 1.0 µM): 85%
- residual activity ([6]; compound 0.1 µM): 74%
- residual activity ([6]; compound 1.0 µM): 17%
- residual activity ([7]; compound 0.1 µM): 95%
- residual activity ([7]; compound 1.0 µM): 69%
- residual activity ([8]; compound 0.1 µM): 53%
- residual activity ([8]; compound 1.0 µM): 18%
- residual activity ([9]; compound 0.1 µM): 28%
- residual activity ([9]; compound 1.0 µM): 14%
- residual activity ([10]; compound 0.1 µM): 96%
- residual activity ([10]; compound 1.0 µM): 62%
- residual activity ([11]; compound 0.1 µM): 58%
- residual activity ([11]; compound 1.0 µM): 28%
- residual activity ([12]; compound 0.1 µM): 57%
- residual activity ([12]; compound 1.0 µM): 12%
- residual activity ([13]; compound 0.1 µM): 65%
- residual activity ([13]; compound 1.0 µM): 38%
- residual activity ([14]; compound 0.1 µM): 22%
- residual activity ([14]; compound 1.0 µM): 14%
- residual activity ([15]; compound 1.0 µM): 33%
- residual activity ([16]; compound 0.1 µM): 67%
- residual activity ([16]; compound 1.0 µM): 26%
- residual activity ([17]; compound 0.1 µM): 104%
- residual activity ([17]; compound 1.0 µM): 57%
- residual activity ([18]; compound 1.0 µM): 108%
- residual activity ([19]; compound 0.1 µM): 89%
- residual activity ([19]; compound 1.0 µM): 38%
- residual activity ([20]; compound 0.1 µM): 14%
- residual activity ([20]; compound 1.0 µM): 19%
- residual activity ([21]; compound 0.1 µM): 104%
- residual activity ([21]; compound 1.0 µM): 6%
- residual activity ([22]; compound 0.1 µM): 55%
- residual activity ([22]; compound 1.0 µM): 28%
- residual activity ([23]; compound 0.1 µM): 98%
- residual activity ([23]; compound 1.0 µM): 85%
- residual activity ([24]; compound 0.1 µM): 67%
- residual activity ([24]; compound 1.0 µM): 17%
- residual activity ([25]; compound 0.1 µM): 50%
- residual activity ([25]; compound 1.0 µM): 16%
- residual activity ([26]; compound 0.1 µM): 36%
- residual activity ([26]; compound 1.0 µM): 11%
- residual activity ([27]; compound 0.1 µM): 37%
- residual activity ([27]; compound 1.0 µM): 27%
- residual activity ([28]; compound 0.1 µM): 22%
- residual activity ([28]; compound 1.0 µM): 4%
- residual activity ([29]; compound 0.1 µM): 31%
- residual activity ([29]; compound 1.0 µM): 10%
- residual activity ([30]; compound 0.1 µM): 113%
- residual activity ([30]; compound 1.0 µM): 95%
- residual activity ([31]; compound 0.1 µM): 14%
- residual activity ([31]; compound 1.0 µM): 5%
- residual activity ([32]; compound 0.1 µM): 78%
- residual activity ([32]; compound 1.0 µM): 26%
- residual activity ([33]; compound 0.1 µM): 86%
- residual activity ([33]; compound 1.0 µM): 55%
- residual activity ([34]; compound 0.1 µM): 15%
- residual activity ([34]; compound 1.0 µM): 8%
- residual activity ([35]; compound 0.1 µM): 28%
- residual activity ([35]; compound 1.0 µM): 18%

Structure (SMILES): CCNc1nc(Nc2cc(F)c(C(=O)N3CCOCC3)cc2OC)ncc1C(F)(F)F
- residual activity ([1]; compound 10.0 µM): 83%
- residual activity ([2]; compound 1.0 µM): 110%
- residual activity ([2]; compound 10.0 µM): 100%
- residual activity ([3]; compound 1.0 µM): 104%
- residual activity ([3]; compound 10.0 µM): 104%
- residual activity ([4]; compound 1.0 µM): 92%
- residual activity ([4]; compound 10.0 µM): 32%
- residual activity ([5]; compound 1.0 µM): 89%
- residual activity ([5]; compound 10.0 µM): 101%
- residual activity ([6]; compound 1.0 µM): 82%
- residual activity ([6]; compound 10.0 µM): 50%
- residual activity ([7]; compound 1.0 µM): 98%
- residual activity ([7]; compound 10.0 µM): 81%
- residual activity ([8]; compound 1.0 µM): 95%
- residual activity ([8]; compound 10.0 µM): 56%
- residual activity ([9]; compound 1.0 µM): 86%
- residual activity ([9]; compound 10.0 µM): 74%
- residual activity ([10]; compound 1.0 µM): 94%
- residual activity ([10]; compound 10.0 µM): 99%
- residual activity ([11]; compound 1.0 µM): 28%
- residual activity ([11]; compound 10.0 µM): 7%
- residual activity ([12]; compound 1.0 µM): 85%
- residual activity ([12]; compound 10.0 µM): 48%
- residual activity ([13]; compound 1.0 µM): 101%
- residual activity ([13]; compound 10.0 µM): 94%
- residual activity ([14]; compound 1.0 µM): 131%
- residual activity ([14]; compound 10.0 µM): 90%
- residual activity ([15]; compound 1.0 µM): 104%
- residual activity ([15]; compound 10.0 µM): 89%
- residual activity ([16]; compound 1.0 µM): 74%
- residual activity ([16]; compound 10.0 µM): 27%
- residual activity ([17]; compound 1.0 µM): 115%
- residual activity ([17]; compound 10.0 µM): 93%
- residual activity ([18]; compound 1.0 µM): 107%
- residual activity ([18]; compound 10.0 µM): 85%
- residual activity ([19]; compound 1.0 µM): 87%
- residual activity ([19]; compound 10.0 µM): 50%
- residual activity ([20]; compound 1.0 µM): 17%
- residual activity ([20]; compound 10.0 µM): 2%
- residual activity ([21]; compound 1.0 µM): 32%
- residual activity ([21]; compound 10.0 µM): 38%
- residual activity ([22]; compound 1.0 µM): 93%
- residual activity ([22]; compound 10.0 µM): 90%
- residual activity ([23]; compound 1.0 µM): 80%
- residual activity ([23]; compound 10.0 µM): 55%
- residual activity ([24]; compound 1.0 µM): 62%
- residual activity ([24]; compound 10.0 µM): 23%
- residual activity ([25]; compound 1.0 µM): 50%
- residual activity ([25]; compound 10.0 µM): 17%
- residual activity ([26]; compound 1.0 µM): 55%
- residual activity ([26]; compound 10.0 µM): 18%
- residual activity ([27]; compound 1.0 µM): 90%
- residual activity ([27]; compound 10.0 µM): 43%
- residual activity ([28]; compound 1.0 µM): 96%
- residual activity ([28]; compound 10.0 µM): 78%
- residual activity ([29]; compound 1.0 µM): 88%
- residual activity ([29]; compound 10.0 µM): 65%
- residual activity ([30]; compound 1.0 µM): 99%
- residual activity ([30]; compound 10.0 µM): 102%
- residual activity ([31]; compound 1.0 µM): 97%
- residual activity ([31]; compound 10.0 µM): 76%
- residual activity ([32]; compound 1.0 µM): 96%
- residual activity ([33]; compound 1.0 µM): 91%
- residual activity ([33]; compound 10.0 µM): 93%
- residual activity ([34]; compound 1.0 µM): 23%
- residual activity ([34]; compound 10.0 µM): 5%
- residual activity ([35]; compound 1.0 µM): 78%
- residual activity ([35]; compound 10.0 µM): 23%
